Measured values from patent publication US20090233917A1, “Stroke recovery” (priority 2006, published 2009).

Legend:
[1] = test system: permanent middle cerebral artery occlusion (MCAO) in rats; test: Functional recovery following permanent MCAO in rats (Example 1); assay type: in vivo, Sprague Dawley Rats; conditions: for Infarct Volume (%): day 28 after permanent MCAO, percentage of intact contralateral hemispheric volume, mean ± S.E.M.
Excerpt: The purpose of this study was to evaluate the efficacy of arimoclomol and iroxanadine in enhancing neurological recovery in a model of permanent middle cerebral artery occlusion (MCAO) in rats. The permanent MCAO is a well accepted and considered to be a standard animal model for studying clinical aspects of stroke. (Stroke. 1999; 30:2752-2758.)
Forty male Sprague Dawley Rats, each weighing 300-400 g, which had been housed and handled for behavioral assessment for seven (7) days prior to surgery for acclimation purposes, were operated under anesthesia to create focal cerebral infarcts by permanent occlusion of the proximal right middle cerebral artery (MCA) according to modified Tamura model. Briefly, the rats were anesthetized with 2-3% halothane in the mixture of N2O:O2 (2:1), and were maintained with 1˜1.5% halothane in the mixture of N2O:O2 (2:1). The temporalis muscle was bisected and reflected through an incision made midway between the eye and the eardrum canal. The proximal MCA was exposed through a subtemporal craniectomy without removing the zygomatic arch and without transecting the facial nerve. […] Body temperature was maintained at 37.5° C.±0.5° C. throughout the entire procedure. Cefazolin (40 mg/kg; Baxter, Lot 06014.1, Exp. January 2009) was given i.p. one day before MCAO and just after MCAO to prevent infections.
The rats were randomly divided into 4 groups of 10 animals each. One group was given arimoclomol, p.o., starting at one hour after the occlusion at 200 mg/kg/d once daily for 3 days, then 50 mg/kg/d once daily for a total of 29 days. The second group was given iroxanadine using the same dosing regimen as for arimoclomol. The third group is a positive control group and is given intracistemally 1 μg (at 20 μg/ml, also containing 100 μg/ml of bovine serum albumin) beta-fibroblast growth factor (bFGF) one hour and one day (i.e. two administrations) after the occlusion. The fourth group is a negative control with administration of the vehicle only.
Animals were evaluated preoperation (day −1), then every 7 days after the operation (7, 14, 21, and 28 days) by forelimb and hindlimb placing tests and body swing test, which are widely accepted as standard tests indicative of functional recovery after a stroke model.
For the forelimb placing test, the examiner held the rat close to a tabletop and scored the rat's ability to place the forelimb on the tabletop in response to whisker, visual, tactile, or proprioceptive stimulation. Similarly, for the hindlimb placing test, the examiner assessed the rat's ability to place the hindlimb on the tabletop in response to tactile and proprioceptive stimulation. Separate sub-scores were obtained for each mode of sensory input (halfpoint designations possible), and added to give total scores (for the forelimb placing test: 0=normal, 12=maximally impaired; for the hindlimb placing test: 0=normal; 6=maximally impaired).
For the body swing test, the rat was held approximately one inch from the base of its tail. It was then elevated to an inch above a surface of a table. The rat was held in the vertical axis, defined as no more than […] to either the left or the right side. A swing was recorded whenever the rat moved its head out of the vertical axis to either side. The rat must return to the vertical position for the next swing to be counted. Thirty (30) total swings were counted. A normal rat typically has an equal number of swings to either side. Following focal ischemia, the rat tends to swing to the contralateral (left) side.
The behavior was evaluated by giving the score ranging in the parentheses after each test: • Forelimb placing test (0-12), consisting of whisker tactile placing (0-2); visual placing (forward, sideways) (0-4); tactile placing (dorsal, lateral) (0-4); and proprioceptive placing (0-2); • Hindlimb placing test (0-6), consisting of tactile placing (dorsal, lateral) (0-4); and proprioceptive placing (0-2). […]

in vivo = conditions: mouse
[2] = test system: mice under cytotoxic hypoxia; conditions: mouse, in vivo
[3] = test system: cardiac ischemia/reperfusion in rats; test: Experimental cardiac ischemia/reperfusion in rats; assay type: in vivo; conditions: administered prior to ischemia/reperfusion
[4] = test system: bacterial reverse mutation; test: Standard bacterial reverse mutation assays
[5] = test system: transient global cerebral ischemia in gerbils; test: Neuroprotection from transient global cerebral ischemia in gerbils; assay type: in vivo, Mongolian gerbils; conditions: 50 mg/kg intraperitoneally prior to surgery; two experiments
Experimental: Adult male Mongolian gerbils weighing 60-80 g were intraperitoneally administered 50 mg/kg of Compound 2 prior to surgery to induce transient global cerebral ischemia. The gerbils were operated under anesthesia with 2% halthane in a gas mixture of 70% N2O and 30% O2, followed by maintenance at 1% halothane to surgically expose and clamp the carotid arteries for 5 minutes to prevent the blood flow to the brain. After 5 minutes, the clamps were removed and reperfusion occurred. The gerbils were evaluated for motility and spontaneous alteration in a Y maze test essentially as described in Gupta and Sharma, Biol. Pharm. Bull. 29(5) 957-961 (2006), and were decapitated 4 days after reperfusion for histological evaluation for the neuronal survival in the hippocampal CA-1 area.

[6] = treatment from 1 h after occlusion, up to 28 days

Row | Compound | Infarct Volume (%) [1] [%] | Body Swing Test, recovery compared to vehicle group [1, 6] | Forelimb Placing Test, recovery compared to vehicle group [1, 6] | Hindlimb Placing Test, recovery compared to vehicle group [1, 6] | LD50 (in vivo) [mg/kg] | survival time under cytotoxic hypoxia [2] | duration of ventricular arrhythmias [3] | overall survival [3] | mutagenicity [4] | neuroprotection (motility, Y maze, neuronal survival in hippocampal CA-1) compared to control group [5]
1 | bFGF: positive control, beta-fibroblast growth factor (bFGF) given intracisternally | 23.1 ± 1.7 | superior to the vehicle group | superior to the vehicle group | superior to the vehicle group | – | – | – | – | – | –
2 | CC(C)(C)NCC(O)CO/N=C(\Cl)c1cccc(C(F)(F)F)c1 (centres unmarked) [Compound 2, N-[3-(1,1-dimethylethyl)amino-2-hydroxypropoxy]-3-trifluoromethylbenzene-carboximidoyl chloride] | – | – | – | – | ~1000 | significantly increased | significantly decreased | increased | not to be mutagenic | neuroprotective effects
3 | c1cncc(C2=NOCC(CN3CCCCC3)N2)c1 (centres unmarked) [iroxanadine, 5,6-dihydro-5(1-piperidinyl)-methyl-3-(3-pyridyl)-4H-1,2,4-oxadiazine] | 21.8 ± 2.1 | – | – | – | – | – | – | – | – | –
